Reference: patent US8263139B2 (Metaproteonics, LLC, priority 2005, dated 2012)
Marks after values point to notes of the source that are not given here.

Key:
3T3-L1 adipocytes [1] = test: Lipogenesis in 3T3-L1 adipocytes (Oil Red O / BODIPY); format: cell-based, murine
Protocol: Prior to experiments, cells were cultured in DMEM containing 10% FBS-HI added 50 units penicillin/ml and 50 μg streptomycin/ml, and maintained in log phase prior to experimental setup. Cells were grown in a 5% CO2 humidified incubator at 37° C. Components of the pre-confluent medium included (1) 10% FBS/DMEM containing 4.5 g glucose/L; (2) 50 U/ml penicillin; and (3) 50 μg/ml streptomycin. Growth medium was made by adding 50 ml of heat inactivated FBS and 5 ml of penicillin/streptomycin to 500 ml DMEM. This medium was stored at 4° C. Before use, the medium was warmed to 37° C. in a water bath.
3T3-T1 cells were seeded at an initial density of 6×10^4 cells/cm^2 in 24-well plates. For two days, the cells were allowed grow to reach confluence. Following confluence, the cells were forced to differentiate into adipocytes by the addition of differentiation medium; this medium consisted of (1) 10% FBS/DMEM (high glucose); (2) 0.5 mM methylisobutylxanthine; (3) 0.5 μM dexamethasone and (4) 10 μg/ml insulin (MDI medium). After three days, the medium was changed to post-differentiation medium consisting of 10 μg/ml insulin in 10% FBS/DMEM.
Whenever fresh media were added, fresh test material was also added.
Monolayer cells were washed with PBS (phosphate buffered saline, Mediatech) and fixed with 10% formaldehyde for ten minutes. Fixed cells were stained with an Oil Red O working solution of three parts 0.6% Oil Red O/isopropanol stock solution and two parts water for one hour and the excess stain was washed once with water. The resulting stained oil droplets were extracted from the cells with isopropanol and quantified by spectrophotometric analysis at 540 nm (MEL312e BIO-KINETICS READER, Bio-Tek Instruments, Winooski, Vt.).
Briefly, media were removed and cells were washed once with non-sterile PBS. […] After 15 min on an orbital shaker (DS-500, VWR Scientific Products, South Plainfield, N.J.) at ambient temperature, the cells were washed with 100 μl PBS followed by the addition of 100 μl PBS for reading for spectrofluorometric determination of BODIPY incorporation into the cells. […]

3T3-L1 adipocytes [2] = test: Adiponectin secretion from TNFα-treated 3T3-L1 adipocytes; format: cell-based, murine; details: for Concentration eliciting maximum adiponectin secretion: of the doses tested
Protocol: 3T3-L1 cells were seeded at an initial density of 1×10^4 cells/cm^2 in 96-well plates. For two days, the cells were allowed grow to reach confluence. Following confluence, the cells were forced to differentiate into adipocytes by the addition of differentiation medium; this medium consisted of (1) 10% FBS/DMEM (high glucose); (2) 0.5 mM methylisobutylxanthine; (3) 0.5 μM dexamethasone and (4) 10 μg/ml insulin (MDI medium). From Day 3 through Day 5, the medium was changed to post-differentiation medium consisting of 10% FBS in DMEM. […] On Day 6, the supernatant medium was sampled for adiponectin determination.
Statistical Calculations and Interpretation—All assays were preformed in duplicate. […] Differences among the doses and test agents were determined using the Student's t-test without correction for multiple comparisons; the nominal five percent probability of a type I error was selected.

3T3-L1 adipocytes [3] = test: IL-6 secretion in LPS/3T3-L1 adipocytes; format: cell-based, murine; details: at the concentration of maximum inhibition, with 100 ng LPS/ml
3T3-L1 adipocytes [4] = test: Adiponectin secretion in LPS/3T3-L1 adipocytes; format: cell-based, murine; details: at the concentration of maximum stimulation; NS = not significantly different from the LPS control
[5] = Collagen induced rheumatoid arthritis murine model, arthritic index; format: in vivo, mouse; details: 10 mg/kg
Protocol: The mice were injected intradermally on day 0 with a mixture containing 100 μg of type II collagen and 100 μg of Mycobacterium tuberculosis in squalene. A booster injection was repeated on day 21. Mice were examined on days 22-27 for arthritic signs with nonresponding mice removed from the study.
Arthritic symptomology was assessed (scored 0-4) for each paw using a arthritic index as described below. Under this arthritic index 0=no visible signs; 1=edema and/or erythema: single digit; 2=edema and or erythema: two joints; 3=edema and or erythema: more than two joints; and 4=severe arthritis of the entire paw and digits associated with ankylosis and deformity.

CC(C)CCC1=C(O)C(C(=O)C(C)C)=C(O)C(CCC(C)C)(CCC(C)C)C1=O [hexahydrocolupulone]
adipogenic / lipogenic response compared with controls (3T3-L1 adipocytes [1]): failed to elicit a lipogenic response

COc1ccc2c(c1)c(CC(=O)O)c(C)n2C(=O)c1ccc(Cl)cc1 [indomethacin]
Concentration eliciting maximum adiponectin secretion (3T3-L1 adipocytes [2]; 2 ng TNFα/ml): 1.25 µg/mL
Concentration eliciting maximum adiponectin secretion (3T3-L1 adipocytes [2]; 10 ng TNFα/ml): 5.0 µg/mL
% Inhibition (maximum inhibition of IL-6 secretion) (3T3-L1 adipocytes [3]): 53* %
% Stimulation (maximum stimulation of adiponectin secretion) (3T3-L1 adipocytes [4]): 9%

CCc1ccc(CCOc2ccc(CC3SC(=O)NC3=O)cc2)nc1 (centres unmarked) [pioglitazone]
maximal adiponectin secretion, times the TNFα treatment (3T3-L1 adipocytes [2]; 10 ng TNFα/ml): 1.47
Concentration eliciting maximum adiponectin secretion over four doses (3T3-L1 adipocytes [2]; 10 ng TNFα/ml, Acacia catechu #5669 fractions): 1.25 µg/mL

C[C@]12C=CC(=O)C=C1CC[C@@H]1[C@@H]2[C@@H](O)C[C@@]2(C)[C@H]1CC[C@]2(O)C(=O)CO [prednisolone]
arthritic index [5]: Significant reductions

Cc1c(C)c2c(c(C)c1O)CCC(C)(COc1ccc(CC3SC(=O)NC3=O)cc1)O2 (centres unmarked) [troglitazone]
Concentration eliciting maximum adiponectin secretion (3T3-L1 adipocytes [2]; 10 ng TNFα/ml): 0.625 µg/mL

COc1cc(O)c(CC=C(C)C)c(O)c1C(=O)/C=C/c1ccc(O)cc1 [xanthohumol]
adipogenic / lipogenic response compared with controls (3T3-L1 adipocytes [1]): comparable to indomethacin and troglitazone

Beta acids
adipogenic / lipogenic response compared with controls (3T3-L1 adipocytes [1]): comparable to indomethacin and troglitazone
